In PubChem BioAssay (NCI):
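A five-concentration, 48-hour dose response in 96-well plates underlies each endpoint, interpolated linearly between surrounding concentrations. Abbreviation: GI50, concentration required for 50% inhibition of growth. TGI: concentration producing complete growth inhibition.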

How the values were obtained:
Test in all cases: DTP human tumour cell line panel, 48 h
HCT-116 colon = test system: HCT-116 colon
ACHN renal = test system: ACHN renal
NCI-H226 lung = test system: NCI-H226 lung
786-0 renal = test system: 786-0 renal
IGROV1 ovarian = test system: IGROV1 ovarian
HL-60(TB) leukemia = test system: HL-60(TB) leukemia
SF-268 CNS = test system: SF-268 CNS
SK-OV-3 ovarian = test system: SK-OV-3 ovarian
HOP-92 NSCLC = test system: HOP-92 NSCLC
HOP-62 NSCLC = test system: HOP-62 NSCLC
KM12 colon = test system: KM12 colon
NCI-H23 lung = test system: NCI-H23 lung
MDA-MB-435 = test system: MDA-MB-435
SN12C renal = test system: SN12C renal
T-47D breast = test system: T-47D breast
CAKI-1 renal = test system: CAKI-1 renal
MDA-MB-231 breast = test system: MDA-MB-231 breast

`COc1ccc2nc(NC(=O)C(=O)C(C(=O)c3ccccc3-c3ccccc3)C3OC(=O)c4ccccc43)sc2c1` (configuration not stated) was tested, and the TGI (HCT-116 colon) was 27.6 µM, the TGI (ACHN renal) was 73.9 µM and the TGI (NCI-H226 lung) was 21.2 µM. For the same molecule, the TGI (786-0 renal) was 31.7 µM, the TGI (IGROV1 ovarian) was 71.7 µM and the TGI (HL-60(TB) leukemia) was 72.5 µM. For the same molecule, the TGI (SF-268 CNS) was 63.2 µM, the TGI (SK-OV-3 ovarian) was 88 µM and the TGI (HOP-92 NSCLC) was 35.2 µM. The TGI (HOP-62 NSCLC) was 35.3 µM, the TGI (KM12 colon) was 54.9 µM and the TGI (NCI-H23 lung) was 30.5 µM.
Work on `COc1ccc(OC)c(C#Cc2ccc(OC)c(C(=O)NCCc3ccc(F)cc3)c2)c1` yielded a GI50 (HCT-116 colon) of 4.7 µM, a TGI (HCT-116 colon) greater than 100 µM and a TGI (ACHN renal) greater than 100 µM. The TGI (MDA-MB-435) was 4.62 µM, the TGI (786-0 renal) was greater than 100 µM and the GI50 (SN12C renal) was greater than 100 µM. For the same molecule, the TGI (SN12C renal) was greater than 100 µM, the TGI (IGROV1 ovarian) was greater than 100 µM and the TGI (HL-60(TB) leukemia) was greater than 100 µM. For the same molecule, the TGI (SF-268 CNS) was greater than 100 µM, the GI50 (HOP-62 NSCLC) was 4.94 µM and the TGI (HOP-62 NSCLC) was greater than 100 µM. For the same molecule, the TGI (KM12 colon) was greater than 100 µM, the TGI (T-47D breast) was greater than 100 µM and the TGI (CAKI-1 renal) was greater than 100 µM. It also gave a TGI (NCI-H23 lung) greater than 100 µM.
`CC(C)=C[C@@H]1C[C@H](C)c2c(O)cc(C)c3c2C1=C(C)C(=O)C3=O` gave a TGI (HCT-116 colon) of 28.5 µM, a TGI (ACHN renal) of 34.3 µM and a TGI (NCI-H226 lung) of 33 µM. The TGI (MDA-MB-435) was 29.4 µM, the TGI (786-0 renal) was 36.1 µM and the TGI (SN12C renal) was 28.3 µM. For the same molecule, the TGI (IGROV1 ovarian) was 35.2 µM, the TGI (MDA-MB-231 breast) was 33.9 µM and the TGI (HL-60(TB) leukemia) was 44.4 µM. For the same molecule, the TGI (SF-268 CNS) was 31.4 µM, the TGI (SK-OV-3 ovarian) was 30.9 µM and the TGI (HOP-92 NSCLC) was 26.9 µM. For the same molecule, the TGI (HOP-62 NSCLC) was 35.8 µM, the TGI (KM12 colon) was 31.3 µM and the TGI (CAKI-1 renal) was 30.2 µM. For the same molecule, the TGI (NCI-H23 lung) was 32.5 µM.
`Cc1ccc2c(c1)SC(c1cc3c(cc1Br)OCO3)S2` (configuration not stated) was tested, and the TGI (HCT-116 colon) was greater than 31.6 µM, the TGI (ACHN renal) was greater than 31.6 µM and the TGI (NCI-H226 lung) was greater than 31.6 µM. It also gave a TGI (786-0 renal) greater than 31.6 µM, a TGI (SN12C renal) greater than 31.6 µM and a TGI (IGROV1 ovarian) greater than 31.6 µM. The TGI (HL-60(TB) leukemia) was greater than 31.6 µM, the TGI (SF-268 CNS) was greater than 31.6 µM and the TGI (SK-OV-3 ovarian) was greater than 31.6 µM. It also gave a TGI (HOP-92 NSCLC) greater than 31.6 µM, a TGI (HOP-62 NSCLC) greater than 31.6 µM and a TGI (KM12 colon) greater than 31.6 µM. For the same molecule, the TGI (CAKI-1 renal) was greater than 100 µM and the TGI (NCI-H23 lung) was greater than 31.6 µM.
`CCOC(CI)O[C@@H]1C=C[C@H](OC(C)=O)C1` (some centres not stated) was tested, and the TGI (HCT-116 colon) was greater than 100 µM, the TGI (ACHN renal) was greater than 100 µM and the TGI (NCI-H226 lung) was greater than 100 µM. For the same molecule, the TGI (MDA-MB-435) was greater than 100 µM, the TGI (786-0 renal) was greater than 100 µM and the TGI (SN12C renal) was greater than 100 µM. For the same molecule, the TGI (MDA-MB-231 breast) was greater than 100 µM, the TGI (SF-268 CNS) was greater than 100 µM and the TGI (SK-OV-3 ovarian) was greater than 100 µM. The TGI (HOP-62 NSCLC) was greater than 100 µM, the TGI (KM12 colon) was greater than 100 µM and the TGI (T-47D breast) was greater than 100 µM. For the same molecule, the TGI (CAKI-1 renal) was greater than 100 µM and the TGI (NCI-H23 lung) was greater than 100 µM.
Work on `CN(C)CCNC(=O)Cn1ccc(=O)c2ccc([N+](=O)[O-])cc21` yielded a TGI (HCT-116 colon) greater than 100 µM, a TGI (ACHN renal) greater than 100 µM and a TGI (NCI-H226 lung) greater than 100 µM. For the same molecule, the TGI (MDA-MB-435) was greater than 100 µM, the TGI (786-0 renal) was greater than 100 µM and the TGI (SN12C renal) was greater than 100 µM. It also gave a TGI (IGROV1 ovarian) greater than 100 µM, a TGI (HL-60(TB) leukemia) greater than 100 µM and a TGI (SF-268 CNS) greater than 100 µM. For the same molecule, the TGI (SK-OV-3 ovarian) was greater than 100 µM, the TGI (HOP-92 NSCLC) was greater than 100 µM and the TGI (HOP-62 NSCLC) was greater than 100 µM. The TGI (KM12 colon) was greater than 100 µM, the TGI (T-47D breast) was greater than 100 µM and the TGI (CAKI-1 renal) was greater than 100 µM. The TGI (NCI-H23 lung) was greater than 100 µM.
Molecule `O=C(Nc1nc2ccccc2n1Cc1ccc(Cl)cc1)NC12CC3CC(CC(C3)C1)C2` has a TGI (HCT-116 colon) of 64 µM, a TGI (ACHN renal) greater than 100 µM and a TGI (NCI-H226 lung) of 70.7 µM. The TGI (786-0 renal) was 58.4 µM, the TGI (SN12C renal) was greater than 100 µM and the TGI (IGROV1 ovarian) was greater than 100 µM. It also gave a TGI (HL-60(TB) leukemia) greater than 100 µM, a TGI (SF-268 CNS) of 23.8 µM and a TGI (SK-OV-3 ovarian) of 39.2 µM. The TGI (HOP-92 NSCLC) was 56.8 µM, the TGI (HOP-62 NSCLC) was 37.3 µM and the TGI (KM12 colon) was greater than 100 µM. For the same molecule, the TGI (CAKI-1 renal) was greater than 100 µM and the TGI (NCI-H23 lung) was 58.4 µM.
